Laboratory results taken from paper PMC9603373 (Microbiology Spectrum, 2022).
Where two headings read alike, the source gives them in different places.

What was measured:
[1] = human healthy volunteers, cited from earlier work; for cmax: mean
Procedure: Therefore, 45 mg/kg s.c. and 90 mg/kg s.c might represent human doses of 8 mg/kg and 12 mg/kg, respectively ([34]). […] Since the efficacy was much more pronounced in the infrequently administered dosing regimens, Cmax/MIC is likely the most predictive ([35], [36]). The selected rat dose from which to simulate the human dose is slightly different from the others ([37][–][39 ...

[2] = Single-dose pharmacokinetics in healthy rats; conditions: for auc / cmax: rounded mean of the PK study, repeated per rat; for AUC0–24: healthy male Wistar rats, UHPLC-ESI-MS/MS, mean (SD), n = 3, SD; for AUC0–24 / conc: plasma
Procedure: The experiments were performed in triplicate. […] Plasma was collected via centrifugation, and the samples were stored at −80°C until analysis.
All of the UHPLC-ESI-MS/MS analyses were performed using an Agilent 1290 UHPLC system coupled with an Agilent 6460 triple quadrupole mass spectrometer (Agilent Technologies, Santa Clara, CA, USA).

CCCCCCCCCC(=O)N[C@@H](Cc1c[nH]c2ccccc12)C(=O)N[C@H](CC(N)=O)C(=O)N[C@@H](CC(=O)O)C(=O)N[C@@H]1C(=O)NCC(=O)N[C@@H](CCCN)C(=O)N[C@@H](CC(=O)O)C(=O)N[C@H](C)C(=O)N[C@@H](CC(=O)O)C(=O)NCC(=O)N[C@H](CO)C(=O)N[C@@H]([C@H](C)CC(=O)O)C(=O)N[C@@H](CC(=O)c2ccccc2N)C(=O)O[C@@H]1C [daptomycin, Daptomycin]
AUC0–24 ([1]; 8 mg/kg i.v.): 858.2 (24.9) mg × h/L
AUC0–24 ([1]; 12 mg/kg i.v.): 1,277.4 (19.8) mg × h/L
cmax ([1]; daily dose 8 mg/kg i.v.): 123.3 (13.0) mg/L
cmax ([1]; daily dose 12 mg/kg i.v.): 183.7 (13.6) mg/L
auc ([2]; 12 mg/kg iv): 228
cmax ([2]; 12 mg/kg iv): 106
auc ([2]; 45 mg/kg sc): 987
cmax ([2]; 45 mg/kg sc): 123
auc ([2]; 90 mg/kg sc): 2054
cmax ([2]; 90 mg/kg sc): 179
AUC0–24 ([2]; single dose 12 mg/kg i.v.): 228.2 (15.7) mg × h/L
AUC0–24 ([2]; single dose 45 mg/kg s.c.): 986.7 (185.6) mg × h/L
AUC0–24 ([2]; single dose 90 mg/kg s.c.): 2,053.6 (352.3) mg × h/L
conc ([2]; single dose 12 mg/kg i.v., time 0 h, rat id 1): 71
conc ([2]; single dose 12 mg/kg i.v., time 0 h, rat id 2): 76
conc ([2]; single dose 12 mg/kg i.v., time 0 h, rat id 3): 171
conc ([2]; single dose 12 mg/kg i.v., time 0.5 h, rat id 1): 45
conc ([2]; single dose 12 mg/kg i.v., time 0.5 h, rat id 2): 4
conc ([2]; single dose 12 mg/kg i.v., time 0.5 h, rat id 3): 19
conc ([2]; single dose 12 mg/kg i.v., time 1 h, rat id 1): 70
conc ([2]; single dose 12 mg/kg i.v., time 1 h, rat id 2): 77
conc ([2]; single dose 12 mg/kg i.v., time 1 h, rat id 3): 81
conc ([2]; single dose 12 mg/kg i.v., time 2 h, rat id 1): 47
conc ([2]; single dose 12 mg/kg i.v., time 2 h, rat id 2): 41
conc ([2]; single dose 12 mg/kg i.v., time 2 h, rat id 3): 50
conc ([2]; single dose 12 mg/kg i.v., time 3 h, rat id 1): 31
conc ([2]; single dose 12 mg/kg i.v., time 3 h, rat id 2): 25
conc ([2]; single dose 12 mg/kg i.v., time 3 h, rat id 3): 27
conc ([2]; single dose 12 mg/kg i.v., time 4 h, rat id 1): 21
conc ([2]; single dose 12 mg/kg i.v., time 4 h, rat id 2): 21
conc ([2]; single dose 12 mg/kg i.v., time 4 h, rat id 3): 21
conc ([2]; single dose 12 mg/kg i.v., time 5 h, rat id 1): 10
conc ([2]; single dose 12 mg/kg i.v., time 5 h, rat id 2): 22
conc ([2]; single dose 12 mg/kg i.v., time 5 h, rat id 3): 12
conc ([2]; single dose 12 mg/kg i.v., time 8 h, rat id 1): 7
conc ([2]; single dose 12 mg/kg i.v., time 8 h, rat id 2): 3.76
conc ([2]; single dose 12 mg/kg i.v., time 8 h, rat id 3): 2.45
conc ([2]; single dose 12 mg/kg i.v., time 12 h, rat id 1): 1.45
conc ([2]; single dose 12 mg/kg i.v., time 12 h, rat id 2): 0
conc ([2]; single dose 12 mg/kg i.v., time 12 h, rat id 3): 1.2
conc ([2]; single dose 12 mg/kg i.v., time 24 h, rat id 1): 0
conc ([2]; single dose 12 mg/kg i.v., time 24 h, rat id 2): 0
conc ([2]; single dose 12 mg/kg i.v., time 24 h, rat id 3): 0
conc ([2]; single dose 45 mg/kg s.c., time 0 h, rat id 1): 4
conc ([2]; single dose 45 mg/kg s.c., time 0 h, rat id 2): 3.71
conc ([2]; single dose 45 mg/kg s.c., time 0 h, rat id 3): 2
conc ([2]; single dose 45 mg/kg s.c., time 0.5 h, rat id 1): 16
conc ([2]; single dose 45 mg/kg s.c., time 0.5 h, rat id 2): 19
conc ([2]; single dose 45 mg/kg s.c., time 0.5 h, rat id 3): 26
conc ([2]; single dose 45 mg/kg s.c., time 1 h, rat id 1): 55
conc ([2]; single dose 45 mg/kg s.c., time 1 h, rat id 2): 40
conc ([2]; single dose 45 mg/kg s.c., time 1 h, rat id 3): 44
conc ([2]; single dose 45 mg/kg s.c., time 2 h, rat id 1): 98
conc ([2]; single dose 45 mg/kg s.c., time 2 h, rat id 2): 64
conc ([2]; single dose 45 mg/kg s.c., time 2 h, rat id 3): 72
conc ([2]; single dose 45 mg/kg s.c., time 3 h, rat id 1): 82
conc ([2]; single dose 45 mg/kg s.c., time 3 h, rat id 2): 109
conc ([2]; single dose 45 mg/kg s.c., time 3 h, rat id 3): 142
conc ([2]; single dose 45 mg/kg s.c., time 4 h, rat id 1): 117
conc ([2]; single dose 45 mg/kg s.c., time 4 h, rat id 2): 89
conc ([2]; single dose 45 mg/kg s.c., time 4 h, rat id 3): 106
conc ([2]; single dose 45 mg/kg s.c., time 5 h, rat id 1): 93
conc ([2]; single dose 45 mg/kg s.c., time 5 h, rat id 2): 95
conc ([2]; single dose 45 mg/kg s.c., time 5 h, rat id 3): 84
conc ([2]; single dose 45 mg/kg s.c., time 8 h, rat id 1): 63
conc ([2]; single dose 45 mg/kg s.c., time 8 h, rat id 2): 68
conc ([2]; single dose 45 mg/kg s.c., time 8 h, rat id 3): 88
conc ([2]; single dose 45 mg/kg s.c., time 12 h, rat id 1): 52
conc ([2]; single dose 45 mg/kg s.c., time 12 h, rat id 2): 37
conc ([2]; single dose 45 mg/kg s.c., time 12 h, rat id 3): 29
conc ([2]; single dose 45 mg/kg s.c., time 24 h, rat id 1): 0.82
conc ([2]; single dose 45 mg/kg s.c., time 24 h, rat id 2): 0
conc ([2]; single dose 45 mg/kg s.c., time 24 h, rat id 3): 0.52
conc ([2]; single dose 90 mg/kg s.c., time 0 h, rat id 1): 5
conc ([2]; single dose 90 mg/kg s.c., time 0 h, rat id 2): 7
conc ([2]; single dose 90 mg/kg s.c., time 0 h, rat id 3): 4
conc ([2]; single dose 90 mg/kg s.c., time 0.5 h, rat id 1): 53
conc ([2]; single dose 90 mg/kg s.c., time 0.5 h, rat id 2): 42
conc ([2]; single dose 90 mg/kg s.c., time 0.5 h, rat id 3): 51
conc ([2]; single dose 90 mg/kg s.c., time 1 h, rat id 1): 58
conc ([2]; single dose 90 mg/kg s.c., time 1 h, rat id 2): 80
conc ([2]; single dose 90 mg/kg s.c., time 1 h, rat id 3): 57
conc ([2]; single dose 90 mg/kg s.c., time 2 h, rat id 1): 116
conc ([2]; single dose 90 mg/kg s.c., time 2 h, rat id 2): 143
conc ([2]; single dose 90 mg/kg s.c., time 2 h, rat id 3): 129
conc ([2]; single dose 90 mg/kg s.c., time 3 h, rat id 1): 125
conc ([2]; single dose 90 mg/kg s.c., time 3 h, rat id 2): 175
conc ([2]; single dose 90 mg/kg s.c., time 3 h, rat id 3): 200
conc ([2]; single dose 90 mg/kg s.c., time 4 h, rat id 1): 161
conc ([2]; single dose 90 mg/kg s.c., time 4 h, rat id 2): 148
conc ([2]; single dose 90 mg/kg s.c., time 4 h, rat id 3): 143
conc ([2]; single dose 90 mg/kg s.c., time 5 h, rat id 1): 158
conc ([2]; single dose 90 mg/kg s.c., time 5 h, rat id 2): 168
conc ([2]; single dose 90 mg/kg s.c., time 5 h, rat id 3): 179
conc ([2]; single dose 90 mg/kg s.c., time 8 h, rat id 1): 128
conc ([2]; single dose 90 mg/kg s.c., time 8 h, rat id 2): 151
conc ([2]; single dose 90 mg/kg s.c., time 8 h, rat id 3): 170
conc ([2]; single dose 90 mg/kg s.c., time 12 h, rat id 1): 78
conc ([2]; single dose 90 mg/kg s.c., time 12 h, rat id 2): 116
conc ([2]; single dose 90 mg/kg s.c., time 12 h, rat id 3): 84
conc ([2]; single dose 90 mg/kg s.c., time 24 h, rat id 1): 2
conc ([2]; single dose 90 mg/kg s.c., time 24 h, rat id 2): 6.44
conc ([2]; single dose 90 mg/kg s.c., time 24 h, rat id 3): 3.35
